Assay results taken from ChEMBL document CHEMBL5608179, “Triptonide induces apoptosis and inhibits the proliferation of ovarian cancer cells by activating the p38/p53 pathway and autophagy” (Bioorg Med Chem, 2024).
Calls of active or inactive are those of the source. No cut-off for these calls is given here.

What was measured:
A2780 [1] = experiment: Induction of p38 expression in human A2780 cells at 5 to 20 nM measured after 24 hrs by Western blot analysis; assay type: functional, cell-based; details: dose 5-20 nM
[2] = Toxicity in BALB/c-nu mouse subcutaneously inoculated with human A2780 cells assessed as morphological changes of lung at 3 to 5 mg/kg, ip administered every day for 20 days by HE staining analysis; assay type: organism-based; details: in vivo, sc, 480 h, dose 3-5 mg/kg, time 20 day
A2780 [3] = experiment: Induction of cell cycle arrest in human A2780 cells assessed as accumulation of cells at G2 phase at 4 nM measured after 24 hrs by PI staining based Cell Cycle Analysis Kit (KeyGEN) (reference value: 24.5%); assay type: functional
A2780 [4] = experiment: Induction of apoptosis in human A2780 cells assessed as increase in cleaved caspase 9 level measured at 5 to 20 nM by Western blot analysis; assay type: functional, cell-based; details: dose 5-20 nM, time 12-48 hrs, TDE = time-dependent effect
A2780 [5] = experiment: Reduction in p62 expression in human A2780 cells at 5 to 20 nM measured after 24 hrs by Western blot analysis; assay type: functional, cell-based; details: dose 5-20 nM
A2780 [6] = experiment: Induction of apoptosis in human A2780 cells assessed as viable cells in presence of p53 SiRNA 2 at 4 nM measured after 24 hrs by Annexin V-FITC/PI flow cytometry (reference value: 94.2%); assay type: functional
A2780 [7] = experiment: Inhibition of colony formation in human A2780 cells in presence of SB203580 at 0.25 nM incubated for 48 hrs by crystal violet staining based colony counting method; assay type: functional, cell-based
A2780 [8] = experiment: Induction of apoptosis in human A2780 cells assessed as necrotic cells at 8 nM measured after 24 to 72 hrs by Annexin V-FITC/PI flow cytometry (reference value: 0.39%); assay type: functional; details: time 24-72 hrs
A2780 [9] = experiment: Induction of apoptosis in human A2780 cells assessed as late apoptotic cells in presence of p53 SiRNA 1 at 4 nM measured after 24 hrs by Annexin V-FITC/PI flow cytometry (reference value: 2.54%); assay type: functional
A2780 [10] = experiment: Cytotoxicity against human A2780 cells assessed as cell viability measured in presence of SB203580 after 48 hrs by MTT assay; assay type: functional, cell-based
A2780 [11] = experiment: Inhibition of colony formation in human A2780 cells at 0.25 to 0.5 uM incubated for 24 hrs by EdU staining based assay; assay type: functional, cell-based; details: dose 0.25-0.5 µM
A2780 [12] = experiment: Induction of apoptosis in human A2780 cells assessed as increase in cleaved caspase 3 level measured at 5 to 20 nM by Western blot analysis; assay type: functional, cell-based; details: dose 5-20 nM, time 12-48 hrs, TDE = time-dependent effect
[13] = Toxicity in BALB/c-nu mouse subcutaneously inoculated with human A2780 cells assessed as change in body weight at 3 to 5 mg/kg, ip administered every day for 20 days; assay type: organism-based; details: in vivo, 480 h, dose 3-5 mg/kg, time 20 day
A2780 [14] = experiment: Induction of apoptosis in human A2780 cells assessed as early apoptotic cells in presence of p53 SiRNA 2 at 4 nM measured after 24 hrs by Annexin V-FITC/PI flow cytometry (reference value: 2.82%); assay type: functional
A2780 [15] = experiment: Induction of apoptosis in human A2780 cells assessed as apoptotic rate measured after 24 to 72 hrs by Annexin V-FITC/PI flow cytometry; assay type: functional, cell-based; details: dose 2-8 nM, time 24-72 hrs
A2780 [16] = experiment: In vivo antitumor activity against human A2780 cells subcutaneously inoculated in BALB/c-nu mouse assessed as inhibition of tumor growth at 3 to 5 mg/kg, ip administered every day for 20 days; assay type: functional, organism-based; details: dose 3-5 mg/kg, time 20.0 day
A2780 [17] = experiment: Induction of cell cycle arrest in human A2780 cells assessed as accumulation of cells at G1 phase at 4 nM measured after 24 hrs by PI staining based Cell Cycle Analysis Kit (KeyGEN) (reference value: 54.2%); assay type: functional
A2780 [18] = experiment: Induction of cell cycle arrest in human A2780 cells assessed as accumulation of cells at G1 phase at 4 nM measured after 24 hrs by PI staining based ell Cycle Analysis Kit (KeyGEN) (reference value: 53.9%); assay type: functional
A2780 [19] = experiment: Induction of cell cycle arrest in human A2780 cells assessed as accumulation of cells at S phase at 4 nM measured after 24 hrs by PI staining based ell Cycle Analysis Kit (KeyGEN) (reference value: 10%); assay type: functional
A2780 [20] = experiment: Induction of apoptosis in human A2780 cells assessed as viable cells in presence of SB203580 at 8 nM measured after 24 to 72 hrs by Annexin V-FITC/PI flow cytometry (reference value: 94.2%); assay type: functional; details: time 24-72 hrs
A2780 [21] = experiment: Induction of cell cycle arrest in human A2780 cells assessed as accumulation of cells at G1 phase in presence of SB203580 at 4 nM measured after 24 hrs by PI staining based Cell Cycle Analysis Kit (KeyGEN) (reference value: 54.2%); assay type: functional
Huh-7 = experiment: Cytotoxicity against human Huh-7 cells assessed as cell viability measured after 48 hrs by MTT assay; assay type: functional, cell-based; details: Huh-7, 48 h
A2780 [22] = experiment: Induction of apoptosis in human A2780 cells assessed as apoptotic rate measured at 2 to 8 nM by Annexin V-FITC/PI flow cytometry; assay type: functional, cell-based; details: dose 2-8 nM, time 24-72 hrs, TDE = time-dependent effect
A2780 [23] = experiment: Induction of apoptosis in human A2780 cells assessed as early apoptotic cells in presence of SB203580 at 8 nM measured after 24 to 72 hrs by Annexin V-FITC/PI flow cytometry (reference value: 2.82%); assay type: functional; details: time 24-72 hrs
A2780 [24] = experiment: Induction of apoptosis in human A2780 cells assessed as early apoptotic cells at 8 nM measured after 24 to 72 hrs by Annexin V-FITC/PI flow cytometry (reference value: 2.82%); assay type: functional; details: time 24-72 hrs
A2780 [25] = experiment: Induction of cell cycle arrest in human A2780 cells assessed as accumulation of cells at G2 phase at 2 nM measured after 24 hrs by PI staining based ell Cycle Analysis Kit (KeyGEN) (reference value: 22.2%); assay type: functional
A2780 [26] = experiment: Induction of cell cycle arrest at S phase in human A2780 cells assessed as increase in CDK2 proteins in presence of SB203580 measured at 10 nM after 24 hrs by Western blot analysis; assay type: functional, cell-based
A2780 [27] = experiment: Induction of apoptosis in human A2780 cells assessed as viable cells in presence of p53 SiRNA 1 at 4 nM measured after 24 hrs by Annexin V-FITC/PI flow cytometry (reference value: 94.2%); assay type: functional
[28] = Toxicity in BALB/c-nu mouse subcutaneously inoculated with human A2780 cells assessed as morphological changes of heart at 3 to 5 mg/kg, ip administered every day for 20 days by HE staining analysis; assay type: organism-based; details: in vivo, sc, 480 h, dose 3-5 mg/kg, time 20 day
A2780 [29] = experiment: Induction of apoptosis in human A2780 cells assessed as decrease in cleaved Bcl-xL level measured at 5 to 20 nM after 12 to 48 hrs by Western blot analysis; assay type: functional, cell-based; details: dose 5-20 nM, time 12-48 hrs
A2780 [30] = experiment: Induction of apoptosis in human A2780 cells assessed as early apoptotic cells in presence of bafilomycin A1 at 800 nM measured after 24 hrs by Annexin V-FITC/PI flow cytometry (reference value: 2.17%); assay type: functional

With `CC(C)[C@]12O[C@H]1[C@@H]1O[C@]13[C@]1(O[C@H]1C[C@H]1C4=C(CC[C@@]13C)C(=O)OC4)[C@@H]2O` [TRIPTOLIDE] the Activity (A2780 [1]) was “Active”, the Activity [2] was “Non-Toxic” and the Activity (A2780 [3]) was 27.4%. The Activity (A2780 [4]) was “Tde”, the Activity (A2780 [5]) was “Active” and the Activity (A2780 [6]) was 66.5%. The inhibition (A2780 [7]) was “inactive”, the Activity (A2780 [8]) was 5.59% and the Activity (A2780 [9]) was 14.3%. The Activity (A2780 [10]) was “inactive”, the inhibition (A2780 [11]) was “Active” and the Activity (A2780 [12]) was “Tde”. The Activity [13] was “Non-Toxic”, the Activity (A2780 [14]) was 12.6% and the Activity (A2780 [15]) was “Dose-Dependent Effect”. For the same compound, the Activity (A2780 [16]) was “Active”, the Activity (A2780 [17]) was 40% and the Activity (A2780 [18]) was 68.9%. For the same compound, the Activity (A2780 [19]) was 30.5%, the Activity (A2780 [20]) was 69% and the Activity (A2780 [21]) was 48.7%. The IC50 (Huh-7) was 74.6 nM, the Activity (A2780 [22]) was “Tde” and the Activity (A2780 [23]) was 13.1%. The Activity (A2780 [24]) was 18.6%, the Activity (A2780 [25]) was 15.3% and the Activity (A2780 [26]) was “inactive”. For the same compound, the Activity (A2780 [27]) was 65.9%, the Activity [28] was “Non-Toxic” and the Activity (A2780 [29]) was “Dose-Dependent Effect”. The Activity (A2780 [30]) was 5.02%.
